Assay results: US20240252503A1, “METHODS OF TREATMENT” (Arena Pharmaceuticals, Inc., priority 2021, published 2024)

Legend:
[1] = biological target: human 5-HT2A (Homo sapiens, UniProt P28223); assay: Receptor affinity, 5-HT2A; assay type: binding
Description: (§1) M1 refers to N-(4-(2-(2-hydroxyethylamino)ethoxy)-3-(1-methyl-1H-pyrazol-5-yl)phenyl)-3-methoxybenzamide. M2 refers to N-(4-(2-aminoethoxy)-3-(1-methyl-1H-pyrazol-5-yl)phenyl)-3-methoxybenzamide.

[2] = biological target: 5-HT2B receptor (Homo sapiens, UniProt P41595); assay: Receptor affinity, 5-HT2B; assay type: binding
Description: as §1

[3] = biological target: T1, 5-HT2C receptor (Homo sapiens, UniProt P28335); assay: Receptor affinity, 5-HT2C; assay type: binding
T1 sequence (P28335 33-458): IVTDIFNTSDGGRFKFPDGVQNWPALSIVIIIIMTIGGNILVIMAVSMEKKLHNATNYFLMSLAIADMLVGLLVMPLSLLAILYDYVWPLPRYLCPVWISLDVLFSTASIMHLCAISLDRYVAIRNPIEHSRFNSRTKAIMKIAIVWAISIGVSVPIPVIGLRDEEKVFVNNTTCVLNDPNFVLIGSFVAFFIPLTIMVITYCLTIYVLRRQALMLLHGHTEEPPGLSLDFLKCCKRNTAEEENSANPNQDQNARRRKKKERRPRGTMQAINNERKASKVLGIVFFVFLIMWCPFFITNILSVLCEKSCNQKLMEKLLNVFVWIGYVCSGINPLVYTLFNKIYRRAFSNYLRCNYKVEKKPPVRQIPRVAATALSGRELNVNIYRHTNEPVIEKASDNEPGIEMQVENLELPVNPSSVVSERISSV
Description: as §1

[4] = system: cold-induced vasoconstriction in the rabbit foot; assay: Intra-arterial dosing in anesthetized rabbits, peripheral cooling of hind foot; assay type: in vivo, New Zealand White rabbit; conditions: intra-arterial 0.05 then 0.1 mg/kg; left hind foot in 40° C., then 15° C. water bath
Experimental: A study was conducted to assess the effects of intra-arterial dosing of Compound 1 and ketanserin on body temperature, peripheral cooling and peripheral blood flow in naïve anesthetized male New Zealand White rabbits.
Formulations of each test compound were prepared by adding saline and vortexing and sonicating until a clear solution was obtained.
Rabbits were sedated with ketamine/xylazine (25/5 mg/kg, subcutaneous) and then intubated and anesthetized with 1-2% isoflurane driven by 100% oxygen (1-2 L/min). Animals were mechanically ventilated and normal body temperature (38-40° C.) was maintained using an external source of heat (e.g., circulating water blanket, heated surgery table). The femoral incision site was infiltrated with 1 mg/kg ID bupivacaine. A catheter for dosing was placed via cutdown in the left femoral artery. […]
At the start of Dose 1 administration, each rabbit's left hind foot was placed in a water bath set to maintain approximately 40° C. […] At 30 minutes post dose start of Dose 2, in Groups 4-6 only, each rabbit's left hind foot was removed to room temperature, monitored and dosed for an additional 15 minutes.
Average percent change of each temperature and blood flow between baseline and each minute of dose administration was determined relative to time-matched vehicle control data.

[5] = Phase 1 single-dose escalation study, pharmacokinetics; assay type: in vivo, human; conditions: for half-life compared with parent compound: after single oral dose of Compound 1, healthy subjects
Experimental: (§2) A phase 1, randomized, double-blind, placebo-controlled, single-dose escalation study was conducted to assess the tolerability, PK, and PD of Compound 1 doses of 1 to 320 mg administered orally as a single dose to a total of 91 healthy subjects.

[6] = system: 5-HT-mediated amplification of platelet aggregation; assay: Phase 1 single-dose escalation study, platelet aggregation with ADP with and without 5-HT; assay type: in vivo, human; conditions: single oral doses above 1 mg
Experimental: as §2
(§3) PD assessment consisted of measuring pre- and post-dose platelet aggregation using an in vitro assay with ADP with and without 5-HT. The degree of thrombin receptor activating peptide (TRAP)-induced platelet aggregation inhibition between groups was similar. However, Compound 1 inhibited 5-HT-mediated amplification of platelet aggregation at doses above 1 mg.

[7] = system: thrombin receptor activating peptide (TRAP)-induced platelet aggregation; assay: Phase 1 single-dose escalation study, TRAP-induced platelet aggregation; assay type: in vivo, human; conditions: single oral dose, versus placebo groups
Experimental: as §2, §3

[8] = Phase 1 multiple-ascending dose study, pharmacokinetics; assay type: in vivo, human; conditions: for accumulation ratio as measured by AUCtau: 60 and 80 mg Compound 1 TID, after 7 days
Experimental: (§4) A phase 1, randomized, double-blind, placebo-controlled, multiple-ascending dose-escalation study was conducted to assess the safety, tolerability, PD, and steady state PK of Compound 1 from 5 to 80 mg administered orally TID for 7 days in a total of 50 healthy subjects.

[9] = system: ex vivo 5-HT-mediated amplification of platelet aggregation; assay: Phase 1 multiple-ascending dose study, ex vivo platelet aggregation; assay type: in vivo, human
Experimental: as §4
Administration of Compound 1 inhibited ex vivo 5-HT-mediated amplification of platelet aggregation.

[10] = system: Raynaud phenomenon attacks; conditions: intravenous; cited from earlier work
[11] = system: Raynaud phenomenon attacks; conditions: intravenous, over 9 weeks, cited from earlier work

5-HT2B receptor, sequence (P41595 whole entry): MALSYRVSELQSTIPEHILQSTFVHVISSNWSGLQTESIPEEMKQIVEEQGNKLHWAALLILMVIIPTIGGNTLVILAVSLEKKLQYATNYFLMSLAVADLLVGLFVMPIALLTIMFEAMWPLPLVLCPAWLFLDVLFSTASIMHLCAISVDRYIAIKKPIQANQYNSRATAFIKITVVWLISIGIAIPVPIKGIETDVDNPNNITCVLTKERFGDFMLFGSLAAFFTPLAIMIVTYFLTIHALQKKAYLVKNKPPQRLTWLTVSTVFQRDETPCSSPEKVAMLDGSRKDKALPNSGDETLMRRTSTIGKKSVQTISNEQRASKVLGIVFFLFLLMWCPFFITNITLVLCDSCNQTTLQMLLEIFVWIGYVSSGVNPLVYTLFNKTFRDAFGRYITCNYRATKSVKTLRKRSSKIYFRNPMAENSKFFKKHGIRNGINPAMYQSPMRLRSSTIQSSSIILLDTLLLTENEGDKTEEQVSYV
human 5-HT2A, sequence (P28223 whole entry): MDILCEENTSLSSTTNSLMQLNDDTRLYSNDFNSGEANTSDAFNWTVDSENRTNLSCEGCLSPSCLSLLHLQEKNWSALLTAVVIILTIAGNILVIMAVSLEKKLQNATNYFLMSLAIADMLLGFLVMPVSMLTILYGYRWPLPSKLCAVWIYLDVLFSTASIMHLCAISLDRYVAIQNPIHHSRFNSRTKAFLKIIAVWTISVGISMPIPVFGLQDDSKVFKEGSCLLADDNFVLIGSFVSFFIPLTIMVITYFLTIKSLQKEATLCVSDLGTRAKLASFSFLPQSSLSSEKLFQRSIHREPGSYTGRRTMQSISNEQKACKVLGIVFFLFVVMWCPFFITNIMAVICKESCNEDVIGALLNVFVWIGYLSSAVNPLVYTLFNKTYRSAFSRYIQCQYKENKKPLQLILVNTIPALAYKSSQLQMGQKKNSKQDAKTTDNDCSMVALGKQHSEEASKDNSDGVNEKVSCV

Compound | affinity for human 5-HT2A [1] | affinity for 5-HT2B receptor [2] | affinity for 5-HT2C receptor [3] | accumulation ratio as measured by AUCtau [8] | effect on cold-induced vasoconstriction in the rabbit foot [4] | half-life compared with parent compound [5] | also measured
COc1cccc(C(=O)Nc2ccc(OCCN3CCOCC3)c(-c3ccnn3C)c2)c1 [Compound 1, 3-methoxy-N-[3-(2-methylpyrazol-3-yl)-4-(2-morpholin-4-ylethoxy)phenyl]benzamide] | high affinity | no appreciable affinity | no appreciable affinity | – | partially reduced | – | half-life as Compound 1 dose was escalated ([5]; single oral dose 1 to 320 mg): half-life increased; dose proportionality of plasma exposure measures ([5]; single oral dose 1 to 320 mg, healthy subjects): greater than dose proportional; absorption ([5]; single oral dose 1 to 320 mg, healthy subjects, all doses): rapidly absorbed; 5-HT-mediated amplification of platelet aggregation [6]: inhibited; degree of TRAP-induced platelet aggregation inhibition between groups [7]: similar; dose proportionality of exposure as measured by AUC ([8]; 5 and 10 mg TID): dose proportional; absorption ([8]; 5 to 80 mg oral TID for 7 days, all doses): rapidly absorbed; dose proportionality of exposure as measured by AUC ([8]; 40, 60, and 80 mg TID, Day 1 and Day 7): greater than dose proportional; Cmax and AUC accumulation ratio ([8]; all doses, Day 7 compared with Day 1, TID for 7 days): less than 2; extent of inhibition of ex vivo 5-HT-mediated amplification of platelet aggregation ([9]; 60 mg and 80 mg doses, following dosing on Days 1, 4, and 7): essentially maximal; ex vivo 5-HT-mediated amplification of platelet aggregation ([9]; 5 to 80 mg oral TID for 7 days): inhibited
CCCCC[C@H](O)/C=C/[C@@H]1[C@H]2C/C(=C/CCCC(=O)O)O[C@H]2C[C@H]1O [epoprostenol] | – | – | – | – | – | – | frequency and duration of Raynaud phenomenon attacks [10]: reduced frequency and duration of Raynaud phenomenon attacks; time after the last infusion at which loss in clinical response was observed [10]: 8-10 weeks
CC#CCC(C)[C@H](O)/C=C/[C@@H]1[C@H]2C/C(=C/CCCC(=O)O)C[C@H]2C[C@H]1O (stereo partly drawn) [iloprost] | – | – | – | – | – | – | improvement of severity score ([11]; versus 19.7% in comparator): 34.8%; reduction of weekly Raynaud phenomenon attacks ([11]; versus 22.2% in comparator): 39.1%
O=C(c1ccc(F)cc1)C1CCN(CCn2c(=O)[nH]c3ccccc3c2=O)CC1 [ketanserin, reference compound] | – | – | – | – | partially reduced | – | –

More lines, main results first:

affinity for human 5-HT2A [1] | affinity for 5-HT2B receptor [2] | affinity for 5-HT2C receptor [3] | accumulation ratio as measured by AUCtau [8] | Compound | effect on cold-induced vasoconstriction in the rabbit foot [4] | half-life compared with parent compound [5] | also measured
high affinity | no appreciable affinity | no appreciable affinity | approximately 2 | COc1cccc(C(=O)Nc2ccc(OCCNCCO)c(-c3ccnn3C)c2)c1 [Compound M1, N-(4-(2-(2-hydroxyethylamino)ethoxy)-3-(1-methyl-1H-pyrazol-5-yl)phenyl)-3-methoxybenzamide] | – | longer half-lives than the parent compound | –
high affinity | no appreciable affinity | no appreciable affinity | approximately 2 | COc1cccc(C(=O)Nc2ccc(OCCN)c(-c3ccnn3C)c2)c1 [Compound M2, N-(4-(2-aminoethoxy)-3-(1-methyl-1H-pyrazol-5-yl)phenyl)-3-methoxybenzamide] | – | longer half-lives than the parent compound | –
